Data from patent publication US20090018146A1, “Combination Therapy with Triterpenoid Compounds and Proteasome Inhibitors” (Research Development Corporation, priority 2005, published 2009).

Experiments:
Format in all cases: cell-based, human
Hsp70 transcript = assay: Northern blot of Hsp70 transcript in Jurkat cells
Description: Total RNA from the control and avicin treated Jurkat T cells was made using Trizol (Invitrogen). Equal amounts of RNA were separated on form amide gels and transferred to nylon membranes (Hybond N+, Amersham) and UV cross-linked using UV Stratalinker (Stratagene). Staining the membranes with 0.03% methylene blue solution in 0.3% sodium acetate, pH 5.2, monitored equal loading. The DNA probes for Hsp70 and Hsp90 were purchased from StressGen as pUC plasmids and used according to the manufacturer's protocol. The DNA fragments were radiolabeled using a Nick Translation kit from Gibco BRL and [^32P] dCTP (Amersham). The membranes were exposed for autoradiography after hybridization using ExpressHyb (Clontech) solution at 58° C. for 1 hour and 5 washes, each of 20 minutes, with 5× SSC containing 0.1% SDS at 50° C.

Hsp90β transcript = assay: One-step RT-PCR of Hsp90β transcript in Jurkat cells; conditions: as early as 30 minutes
Protocol: (§1) Total RNA purified using Trizol method (Invitrogen) was subjected to DNAseI (RNAase free, Sigma Chemical Co.) treatment to remove any residual DNA, followed by heat inactivation and addition of 1 mM EDTA. Absence of genomic DNA was confirmed by performing PCR using Taq DNA polymerase. About 50-100 ng of purified total RNA was used in a one-step RT-PCR reaction kit from Invitrogen in a Techne Genius machine. The samples were separated on 0.8% agarose-TBE gels and viewed by staining with ethidium bromide.
(§2) Quantitation of proteins (western) and transcripts (RT-PCR) was performed using the NIH 1.61 image software.

XIAP [1] = assay: Western blot of XIAP in primary PBL from Sezary syndrome patients; conditions: 5 μg/ml, 24 hours
Protocol: (§3) Jurkat T cells (2 μg/ml=1 μM), U-937 (4 μg/ml), MJ (5 μg/ml), and HH cells (2.5 μg/ml) were treated for 0-24 hours with the indicated concentrations of avicin D. PBLs from the patients or normal blood were treated with 5 μg/ml of avicin D for 24 hours.
(§4) At the end of treatments, cells were harvested, washed with sterile ice-cold PBS and cytoplasmic extracts (CE) were prepared by lysing the cells in CE buffer containing 10 mM Hepes-Cl pH 7.5, 10 mM KCl, 0.1 mM EDTA, 0.1 mM EGTA, 0.3% NP40, and a protease inhibitor cocktail (Sigma). After centrifugation and separating the supernatant (CE proteins), the pellet was resuspended in a buffer containing 20 mM Hepes-Cl, 400 mM NaCl, 1 mM EDTA, 1 mM EGTA, and protease inhibitor cocktail (Sigma). The nuclear protein extraction proceeded for 30 min. on ice followed by centrifugation at 14,000 rpm for 5 min at 4° C. The clear supernatant containing nuclear proteins (NE) was collected, glycerol (10%) was added, and proteins stored at −80° C. until use.
(§5) SDS-PAGE and immunoblot procedures were essentially performed as described (Sambrook, 1989). […] Protein bands were detected using the ECL chemiluminescence kit from Amersham as per the manufacturer's protocol.
as §2

XIAP [2] = assay: Western blot of XIAP in leukemic/lymphoma cell-lines; conditions: Jurkat, U937, MJ-1, and HH cells, 24 hours post-treatment
Protocol: Human Jurkat T cell leukemia, monocytic U937 cells, and cutaneous T-cell lymphoma (CTCL) cell lines MJ (G11) and HH were obtained from American Type Culture Collection (Rockville, Md.) and grown in RPMI 1640 medium supplemented with 10% FBS and 2 mM glutamine.
as §3
as §4, with “The nuclear protein extraction proceeded for 30 min. on ice followed by centrifugation at 14,000 rpm for 5 min at 4° C. The clear supernatant containing nuclear proteins (NE) was collected, glycerol (10%) was added, and proteins stored at −80° C. until use.” left out
as §5, §2

XIAP [3] = assay: Western blot of XIAP in normal PBL; conditions: PBL from a normal blood sample, 5 μg/ml, 24 hours
Protocol: as §3, §4, §5

[4] = system: Hsc70, Hsp60, grp75, calnexin; assay: Western blot of other chaperone proteins in avicin D treated Jurkat cells; conditions: avicin D 1 μM, up to 4 hours
Protocol: as §3, §4, §5, §2

Hsp70α transcript = assay: One-step RT-PCR of Hsp70α transcript in Jurkat cells; conditions: as early as 30 minutes
Protocol: as §1, §2

Hsp70 = assay: Western blot of Hsp70 protein in avicin D treated Jurkat cells; conditions: avicin D 1 μM, within one hour up to 4 hours, western blot vs untreated
Protocol: as §3, §4
(§6) SDS-PAGE and immunoblot procedures were essentially performed as described (Sambrook, 1989). Briefly, cytoplasmic and nuclear proteins were resolved on SDS-PAGE, blotted on PVDF membranes (BioRad) and probed with various antibodies followed with anti-rabbit, anti-mouse antibody conjugated to horseradish peroxidase (HRP) from BioRad or HRP conjugated anti-goat antibody from Santa Cruz Biotechnology, corresponding to the primary antibody. Protein bands were detected using the ECL chemiluminescence kit from Amersham as per the manufacturer's protocol.
as §2

[5] = system: Hsp90α, Hsc70, and Hsp60 transcripts; assay: One-step RT-PCR of Hsp90α, Hsc70 and Hsp60 transcripts in Jurkat cells
Protocol: as §1, §2

XIAP [6] = assay: Western blot of XIAP protein in Jurkat cells
Protocol: as §3, §4, §6, §2

CTCL cells = assay: Apoptosis in PBL from Sezary syndrome patients
Protocol: as §3

caspase 3 = assay: Western blot of caspase 3 activation in Jurkat cells; conditions: 2-4 hours
Protocol: as §3, §4, §5

[7] = system: ubiquitin-protein conjugates; assay: Western blot of ubiquitin-protein conjugates in Jurkat cells; conditions: from around 2 hours
Protocol: as §3, §4, §5

Hsp90 = assay: Western blot of Hsp90 protein in avicin D treated Jurkat cells; conditions: avicin D 1 μM, within one hour up to 4 hours, western blot vs untreated
Protocol: as §3, §4, §5, §2

caspase 9 = assay: Western blot of caspase 9 cleavage in Jurkat cells; conditions: 2 hours of treatment
Protocol: as §3, §4, §5

his-ub-Hsp70 = assay: In vivo ubiquitination of Hsp70 in his-ub transfected Jurkat cells; conditions: his-ub transfected Jurkat cells, avicin D 1 μM, 2 and 4 hours, p<0.05
Protocol: Jurkat T-cells were transfected with a plasmid pDG268 that expresses a fusion protein of histidine-tagged human ubiquitin and enhanced GFP. Transfection was performed using μm ax a Biosystems kit and their protocol. After 24 hours of transfection, cells were harvested, resuspended at a density of 10^6 cells/ml before treatment with lactacystin or avicin D.
Jurkat T cells transfected with the his-ub plasmid construct were treated with lactacystin (10 μM) or with avicin D (1 μM) for 4 hours. Cells were harvested and CE prepared as described above. […] The affinity purified histidine-tagged proteins were separated on SDS-PAGE and analyzed on western blots for ub-Hsp70 proteins.

## C=C[C@](C)(O)CC/C=C(\CO)C(=O)O[C@H]1[C@H](O)[C@@H](O)[C@H](O[C@@](C)(C=C)CC/C=C(\CO)C(=O)O[C@H]2C[C@]3(C(=O)O[C@@H]4O[C@H](CO)[C@@H](O)[C@H](O)[C@H]4O[C@@H]4O[C@@H](C)[C@H](O[C@@H]5O[C@@H](CO)[C@H](O)[C@H]5O)[C@@H](O[C@@H]5O[C@H](CO)[C@@H](O)[C@H](O)[C@H]5O)[C@H]4O)[C@H](O)C[C@]4(C)C(=CC[C@@H]5[C@@]6(C)CC[C@H](O[C@@H]7O[C@H](CO[C@@H]8O[C@H](C)[C@H](O)[C@H](O)[C@H]8O[C@@H]8OC[C@@H](O)[C@H](O)[C@H]8O)[C@@H](O)[C@H](O)[C@H]7NC(C)=O)C(C)(C)[C@@H]6CC[C@]54C)[C@@H]3CC2(C)C)O[C@@H]1C [avicin D]
Hsp70 transcript
  increase in Hsp70 transcript (Northern blot): ~1.4 fold
Hsp90β transcript
  increase in the Hsp90β transcript (RT-PCR): ~1.4 fold
XIAP [1]
  decrease in XIAP protein: 30-40%
XIAP [2]
  XIAP protein level: significant decrease
XIAP [3]
  change in XIAP protein: no significant change
[4]
  expression of other chaperone proteins (Hsc70, Hsp60, grp75, calnexin): did not show any change
Hsp70α transcript
  increase in the Hsp70α transcript (RT-PCR): ~1.6 fold
Hsp70
  protein levels of Hsp70: significant decrease
[5]
  changes in the transcripts encoding Hsp90α, Hsc70, and Hsp60 (RT-PCR): marginal
XIAP [6]; by 1 hour
  XIAP degraded: ~60%
XIAP [6]; starting at 1 hour post treatment
  XIAP protein level: significant decrease
CTCL cells
  apoptosis: caused apoptosis
Caspase 3
  caspase 3 activation: caspase 3 activation
[7]
  ubiquitin-protein conjugates in cell extracts: protein conjugates observed
Hsp90
  protein levels of Hsp90: significant decrease
Caspase 9
  cleavage of caspase 9: increased cleavage
his-ub-Hsp70
  decrease in the levels of his-ub-Hsp70 protein band: 40%
